Source: patent US20240350493A1 (Kadmon Corporation, LLC, priority 2022, published 2024)

Assays:
CYP2C8 = CYP2C8 (Homo sapiens, UniProt P10632); assay: incubations with recombinant enzymes; format: in vitro ADME
CYP2C19 = CYP2C19 (Homo sapiens, UniProt P33261); assay: incubations with recombinant enzymes; format: in vitro ADME
[1] = food effect study, 5 × 100 mg capsules (KD025-105); format: in vivo, human; conditions: for AUC(0-t) / AUC(0-inf) / Cmax / Tmax / half-life: male, human, plasma, oral, 500 mg, 5 × 100 mg capsules; for Tmax: read-out: Tmax, median (range)
Procedure: (§1) Both studies were single-center, open-label, randomized, single dose crossover studies in healthy males.
Water was permitted ad libitum except for 1 hour pre-and post-dose.
(§2) In both studies, serial blood samples for PK analysis were collected at pre-dose and 1, 2, 4, 6, 8, 12, 16, 24, and 36 hours post-dose. An additional sample at 30 hours post-dose was collected in the first study; additional samples were collected 3, 5, and 48 hours post-dose in the second study. Blood samples (5-6 mL per sample) were collected in K3EDTA tubes on ice and were processed within 30 minutes of collection, then frozen at approximately-70 to −80° C. shortly after collection.
(§3) Sample preparation was performed by protein precipitation.
(§4) Statistical analyses were performed in SAS using the PROC MIXED procedure and the Restricted Maximum Likelihood estimation method. In both studies, the presence of a food effect was evaluated by a formal statistical analysis on natural log-transformed AUC and Cmax using mixed effect modeling techniques. The model included treatment, period, and sequence as fixed effects and subject nested within sequence as a random effect. Adjusted geometric mean ratios (GMRs) and their 90% confidence intervals (CIs) were calculated for fed (test) versus fasted (reference) treatments. The absence of a food effect was to be concluded if the 90% CI was within the bioequivalence limits of 80.00 to 125.00%.

[2] = relative bioavailability/food effect study, tablet and capsule (KD025-106); format: in vivo, human; conditions: for AUC(0-t) / AUC(0-inf) / Cmax / Tmax / half-life: male, human, plasma, oral, 200 mg
Procedure: as §1
In the second, relative bioavailability/food effect study, both the marketed tablets and earlier formulation capsules were investigated.
For Treatments B and C, before dosing, subjects consumed a high-fat breakfast consisting of a hash brown, bacon, fried egg, white bread, and 240 mL of full fat milk over 25 minutes. […] All subjects were to receive each treatment, with at least a 6-day washout between each period. Water was permitted ad libitum in all study periods, besides for 1 hour pre-and post-dose.
as §2, §3, §4
To assess relative bioavailability between formulations in the second study, the same analysis was performed for tablets (test) versus capsules (reference), both in the fed state. For both studies, all subjects who received at least one dose of study drug and had post-dose PK data available were included in the PK population

BCRP = BCRP (Homo sapiens, UniProt Q9UNQ0); assay: transporter inhibition, in vitro; format: in vitro ADME; conditions: at clinically relevant concentrations
Sequence of BCRP (Q9UNQ0 whole entry): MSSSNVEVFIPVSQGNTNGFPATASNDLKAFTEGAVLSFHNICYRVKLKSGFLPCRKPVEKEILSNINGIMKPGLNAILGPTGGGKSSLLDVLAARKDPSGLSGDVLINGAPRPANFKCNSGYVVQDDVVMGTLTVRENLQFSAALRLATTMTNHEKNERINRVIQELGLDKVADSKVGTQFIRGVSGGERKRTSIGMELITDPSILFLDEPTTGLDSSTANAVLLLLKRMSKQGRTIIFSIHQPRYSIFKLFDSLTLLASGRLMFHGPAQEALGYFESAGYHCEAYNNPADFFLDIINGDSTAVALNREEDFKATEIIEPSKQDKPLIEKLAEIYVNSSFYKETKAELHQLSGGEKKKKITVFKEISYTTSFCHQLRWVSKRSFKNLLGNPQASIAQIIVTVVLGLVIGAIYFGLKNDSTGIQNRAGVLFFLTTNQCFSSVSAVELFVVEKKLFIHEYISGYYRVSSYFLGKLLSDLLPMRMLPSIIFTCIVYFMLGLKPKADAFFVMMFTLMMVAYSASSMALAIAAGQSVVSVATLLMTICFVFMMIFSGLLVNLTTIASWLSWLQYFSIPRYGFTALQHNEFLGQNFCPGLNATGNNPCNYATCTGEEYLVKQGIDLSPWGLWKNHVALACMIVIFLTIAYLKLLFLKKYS

UGT1A1 = UGT1A1 (Homo sapiens, UniProt P22309); assay: enzyme inhibition, in vitro; format: in vitro ADME
Sequence of UGT1A1 (P22309 26-533): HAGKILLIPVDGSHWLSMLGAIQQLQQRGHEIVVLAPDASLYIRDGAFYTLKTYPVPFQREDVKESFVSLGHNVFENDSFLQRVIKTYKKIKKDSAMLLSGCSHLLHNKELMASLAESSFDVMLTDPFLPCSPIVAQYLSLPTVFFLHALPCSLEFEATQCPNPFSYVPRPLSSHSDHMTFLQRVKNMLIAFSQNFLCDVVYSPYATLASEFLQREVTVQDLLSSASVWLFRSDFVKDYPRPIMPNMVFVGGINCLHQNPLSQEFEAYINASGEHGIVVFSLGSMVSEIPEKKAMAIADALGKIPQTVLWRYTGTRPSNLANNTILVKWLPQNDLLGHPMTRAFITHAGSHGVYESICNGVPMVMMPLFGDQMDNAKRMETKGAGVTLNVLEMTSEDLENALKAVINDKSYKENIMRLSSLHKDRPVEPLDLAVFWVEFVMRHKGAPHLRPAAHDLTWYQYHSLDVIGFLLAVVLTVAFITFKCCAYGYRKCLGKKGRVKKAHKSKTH

rat bone marrow = assay: in vivo rat bone marrow micronucleus assay
dogs = assay: general toxicology studies, dogs; format: in vivo, dog
pregnant rabbits = conditions: female, rabbit, in vivo, po
[3] = 200 mg tablet, high-fat breakfast

Sequence of CYP2C19 (P33261 whole entry): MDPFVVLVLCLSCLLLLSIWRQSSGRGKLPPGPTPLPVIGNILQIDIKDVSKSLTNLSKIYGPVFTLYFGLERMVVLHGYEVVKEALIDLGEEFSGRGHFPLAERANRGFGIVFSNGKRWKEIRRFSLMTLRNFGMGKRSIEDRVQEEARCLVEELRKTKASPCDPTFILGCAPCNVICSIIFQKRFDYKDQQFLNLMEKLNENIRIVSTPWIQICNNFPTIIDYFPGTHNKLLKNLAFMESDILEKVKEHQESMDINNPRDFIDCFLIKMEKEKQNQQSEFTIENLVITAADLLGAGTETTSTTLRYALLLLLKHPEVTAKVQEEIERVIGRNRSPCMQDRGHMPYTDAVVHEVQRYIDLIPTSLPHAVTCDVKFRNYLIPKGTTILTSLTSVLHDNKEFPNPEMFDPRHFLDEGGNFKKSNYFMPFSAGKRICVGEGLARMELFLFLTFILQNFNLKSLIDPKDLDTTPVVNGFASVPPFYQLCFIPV
Sequence of CYP2C8 (P10632 whole entry): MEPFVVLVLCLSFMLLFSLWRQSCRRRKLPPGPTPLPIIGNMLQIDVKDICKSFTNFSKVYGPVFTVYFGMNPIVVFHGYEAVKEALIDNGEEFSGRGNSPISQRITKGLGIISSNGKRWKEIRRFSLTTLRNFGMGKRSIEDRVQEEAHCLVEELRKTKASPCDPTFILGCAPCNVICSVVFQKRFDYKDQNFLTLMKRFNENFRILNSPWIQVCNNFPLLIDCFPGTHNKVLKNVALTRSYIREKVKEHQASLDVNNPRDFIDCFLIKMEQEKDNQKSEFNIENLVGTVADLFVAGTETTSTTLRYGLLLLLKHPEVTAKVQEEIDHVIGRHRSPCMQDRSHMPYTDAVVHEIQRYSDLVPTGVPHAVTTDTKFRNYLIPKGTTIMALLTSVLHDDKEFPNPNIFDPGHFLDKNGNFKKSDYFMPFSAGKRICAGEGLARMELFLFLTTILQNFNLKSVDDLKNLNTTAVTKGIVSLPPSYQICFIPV

With `CC(C)NC(=O)COc1cccc(-c2nc(Nc3ccc4[nH]ncc4c3)c3ccccc3n2)c1` [Belumosudil, 2-{3-[4-(1H-indazol-5-ylamino)-2-quinazolinyl]phenoxy}-N-(propan-2-yl) acetamide] the “share of belumosudil metabolism” value (CYP2C8) was 14.2%, the “share of belumosudil metabolism” value (CYP2C19) was under 5% and the “GMRs fed vs fasted for Cmax and AUC” value ([1]; 500 mg capsules) was “above 125%”. It also gave an AUC(0-t) ([1]; fasted, read-out: AUC0-24, arithmetic mean (SD)) of 7980 ng·h/mL, an AUC(0-t) ([1]; fasted, read-out: AUC0-24, geometric mean (geometric CV %)) of 7600 ng·h/mL and an AUC(0-inf) ([1]; fasted, read-out: AUCinf, arithmetic mean (SD)) of 8700 ng·h/mL. It also gave an AUC(0-inf) ([1]; fasted, read-out: AUCinf, geometric mean (geometric CV %)) of 8310 ng·h/mL, an AUC(0-t) ([1]; fasted, read-out: AUClast, arithmetic mean (SD)) of 8590 ng·h/mL and an AUC(0-t) ([1]; fasted, read-out: AUClast, geometric mean (geometric CV %)) of 8190 ng·h/mL. It also gave a Cmax ([1]; fasted, read-out: Cmax, arithmetic mean (SD)) of 1580 ng/mL, a Cmax ([1]; fasted, read-out: Cmax, geometric mean (geometric CV %)) of 1500 ng/mL and a Tmax ([1]; fasted) of 2 h. For the same compound, the half-life ([1]; fasted, read-out: t1/2, arithmetic mean (SD) (converted)) was 9.5 h, the half-life ([1]; fasted, read-out: t1/2, geometric mean (geometric CV %) (converted)) was 9 h and the AUC(0-t) ([1]; fed, read-out: AUC0-24, arithmetic mean (SD)) was 25100 ng·h/mL. For the same compound, the AUC(0-t) ([1]; fed, read-out: AUC0-24, geometric mean (geometric CV %)) was 23300 ng·h/mL, the AUC(0-inf) ([1]; fed, read-out: AUCinf, arithmetic mean (SD)) was 26900 ng·h/mL and the AUC(0-inf) ([1]; fed, read-out: AUCinf, geometric mean (geometric CV %)) was 25100 ng·h/mL. The AUC(0-t) ([1]; fed, read-out: AUClast, arithmetic mean (SD)) was 26200 ng·h/mL, the AUC(0-t) ([1]; fed, read-out: AUClast, geometric mean (geometric CV %)) was 24400 ng·h/mL and the Cmax ([1]; fed, read-out: Cmax, arithmetic mean (SD)) was 4280 ng/mL. The Cmax ([1]; fed, read-out: Cmax, geometric mean (geometric CV %)) was 3780 ng/mL, the Tmax ([1]; fed) was 4 h and the half-life ([1]; fed, read-out: t1/2, arithmetic mean (SD) (converted)) was 8 h. For the same compound, the half-life ([1]; fed, read-out: t1/2, geometric mean (geometric CV %) (converted)) was 7.9 h, the “reduction of inter-subject variability in exposure with food” value ([2]; 200 mg tablet) was “approximately 60%” and the “AUC% extrap, arithmetic mean (SD)” value ([2]; 200 mg tablet, fasted) was 8.38 (9.05) %. The “AUC% extrap, geometric mean (geometric CV %)” value ([2]; 200 mg tablet, fasted) was 6.02 (90.8); %, the “AUC% extrap, arithmetic mean (SD)” value ([2]; 200 mg tablet, fed) was 1.71 (0.71) % and the “AUC% extrap, geometric mean (geometric CV %)” value ([2]; 200 mg tablet, fed) was 1.55 (50.3); %. For the same compound, the “AUCinf fed as % of fasted” value [2, 3] was 180%, the “Cmax fed as % of fasted” value [2, 3] was 225% and the AUC(0-t) ([2]; 200 mg tablet, fasted, read-out: AUC0-24, arithmetic mean (SD)) was 5400 ng·h/mL. The AUC(0-t) ([2]; 200 mg tablet, fasted, read-out: AUC0-24, geometric mean (geometric CV %)) was 4250 ng·h/mL, the AUC(0-inf) ([2]; 200 mg tablet, fasted, read-out: AUCinf, arithmetic mean (SD)) was 6670 ng·h/mL and the AUC(0-inf) ([2]; 200 mg tablet, fasted, read-out: AUCinf, geometric mean (geometric CV %)) was 4910 ng·h/mL. The AUC(0-t) ([2]; 200 mg tablet, fasted, read-out: AUClast, arithmetic mean (SD)) was 5830 ng·h/mL, the AUC(0-t) ([2]; 200 mg tablet, fasted, read-out: AUClast, geometric mean (geometric CV %)) was 4520 ng·h/mL and the Cmax ([2]; 200 mg tablet, fasted, read-out: Cmax, arithmetic mean (SD)) was 1110 ng/mL. For the same compound, the Cmax ([2]; 200 mg tablet, fasted, read-out: Cmax, geometric mean (geometric CV %)) was 821 ng/mL, the Tmax ([2]; 200 mg tablet, fasted, read-out: Tmax, median (range)) was 2 h and the half-life ([2]; 200 mg tablet, fasted, read-out: t1/2, arithmetic mean (SD) (converted)) was 12.2 h. The half-life ([2]; 200 mg tablet, fasted, read-out: t1/2, geometric mean (geometric CV %) (converted)) was 11.2 h, the AUC(0-t) ([2]; 200 mg tablet, fed, read-out: AUC0-24, arithmetic mean (SD)) was 10600 ng·h/mL and the AUC(0-t) ([2]; 200 mg tablet, fed, read-out: AUC0-24, geometric mean (geometric CV %)) was 9580 ng·h/mL. The AUC(0-inf) ([2]; 200 mg tablet, fed, read-out: AUCinf, arithmetic mean (SD)) was 11300 ng·h/mL, the AUC(0-inf) ([2]; 200 mg tablet, fed, read-out: AUCinf, geometric mean (geometric CV %)) was 10100 ng·h/mL and the AUC(0-t) ([2]; 200 mg tablet, fed, read-out: AUClast, arithmetic mean (SD)) was 10800 ng·h/mL. It also gave an AUC(0-t) ([2]; 200 mg tablet, fed, read-out: AUClast, geometric mean (geometric CV %)) of 9750 ng·h/mL, a Cmax ([2]; 200 mg tablet, fed, read-out: Cmax, arithmetic mean (SD)) of 2320 ng/mL and a Cmax ([2]; 200 mg tablet, fed, read-out: Cmax, geometric mean (geometric CV %)) of 2100 ng/mL. For the same compound, the Tmax ([2]; 200 mg tablet, fed, read-out: Tmax, median (range)) was 2.5 h, the half-life ([2]; 200 mg tablet, fed, read-out: t1/2, arithmetic mean (SD) (converted)) was 7.59 h and the half-life ([2]; 200 mg tablet, fed, read-out: t1/2, geometric mean (geometric CV %) (converted)) was 6.98 h. The Tmax ([2]; 200 mg tablet, read-out: delay in Tmax with fed administration) was 0.5 h, the “exposure (Cmax and AUC) higher for tablet versus capsule” value ([2]; single dose 200 mg, fed state) was 17-19% and the BCRP inhibition (BCRP) was “inhibits”. For the same compound, the UGT1A1 inhibition (UGT1A1) was “inhibitor”, the genotoxicity (rat bone marrow) was “not genotoxic” and the “dose with spermatozoa degeneration” value (dogs) was 35 mg/kg/day. For the same compound, the “doses with embryo-fetal effects” value (pregnant rabbits) was at least 50 mg/kg/day and the “doses with maternal toxicity (body weight loss and mortality)” value (pregnant rabbits) was at least 125 mg/kg/day.
